Test results as given in PMC3728024, “Antidiabetic and Antioxidant Effects and Phytochemicals of Mulberry Fruit (Morus alba L.) Polyphenol Enhanced Extract” (PLoS ONE, 2013).
Values after ≈ are worked out from the molar mass of the structure shown. Values joined by “and” are separate entries in the source; they are usually repeats but may differ in a detail not shown here. Equal values may be shown once. Read-outs that look alike come from different tables or passages of the source.

Legend:
[1] = target: T1, α-Glucosidase type I (EC 3.2.1.20) (Saccharomyces cerevisiae, UniProt P53341); experiment: biochemical
T1 construct: purchased Sigma-Aldrich Chemical Co. (St. Louis, MO)
Description: α-Glucosidase type I (EC 3.2.1.20) from baker's yeast, p-nitrophenyl α-D-glucopyranoside (PNPG), streptozotocin (STZ), were purchased from Sigma-Aldrich Chemical Co. (St. Louis, MO). […] Phenazine methosulfate was purchased from J&K Chemical Ltd. (Shanghai, China). 2,2-Diphenyl-1-picrylhdrazyl (DPPH) was product of Aladdin Chemistry Co. Ltd. (Shanghai, China). Silica gel (200–300 mesh, Anhui Liangchen Silicon Material Co. Ltd. Anhui, China), Sephadex LH-20 (Pharmacia Biothech AB, Uppsala, Sweden), and ODS (40–60 μm, Merck KGaA, Darastadt, Germany) were used for column chromatography. HPLC-grade methanol was purchased from Jiangsu Hanbang Science and Technology Co. Ltd. (Nanjing, China). All other analytical chemicals and reagents were purchased from Sinopharm Chemical Regent Co. Ltd. (Shanghai, China).
The α-glucosidase inhibitory studies were performed spectrophotometrically on 96-well microplate reader according to a reported method. […] The assay was performed in triplicate.

[2] = DPPH radical-scavenging assay of the isolated compounds; details: mean ± SD, n = 3
Procedure: (§1) The DPPH radical-scavenging assay was performed according to a previously described method. All tests were performed in triplicate. Ascorbic acid and gallic acid were used as positive controls.

[3] = Superoxide anion radical-scavenging assay (NADH/PMS system); details: mean ± SD, n = 3; for EC50: isolated compounds
Description: Superoxide radical were generated by the NADH/PMS system according to a reported protocol. Gallic acid was used as positive control.

[4] = DPPH radical-scavenging assay of the extracts; details: DPPH used was 2,2-Di(4-tert-octylphenyl)-1-picrylhydrazyl, mean ± SD, n = 3
Procedure: as §1

[5] = tested on: STZ-induced diabetic mice; experiment: Fasting blood glucose of STZ-induced diabetic mice; type: in vivo; details: 300 mg/kg p.o. two times a day, n = 8
Procedure: The mice were given 5% glucose solution orally in order to stave off the hypoglycemia during the first day after the injection of STZ [24]. In testing the FBG of the mice, a standard protocol developed by the American National Institute of Health was carried out. […] The FBG was measured using the Accu-Check Active Blood Glucose Meter (Roche Diagnostics, Mannheim, Germany). […] Sample suspended in distilled water containing 0.3% CMC-Na was administered p.o. two times a day for 2 weeks. FBG of the diabetic mice was determined on the day 7 and 14 as described before. On the day 14, the mice were sacrificed under diethyl ether anesthesia after the FBG determination. Blood was collected from the ophthalmic vein and allowed to clot at room temperature for 30 min. The serum was separate by centrifuging at 4000 rpm for 10 min with a refrigerated centrifuge. Liver and kidney were excised. Samples were stored at −20°C until used.

[6] = tested on: STZ-induced diabetic mice; experiment: SOD activity in serum, kidney and liver of STZ-induced diabetic mice; type: in vivo; details: 300 mg/kg, 2 weeks
Procedure: (§2) Total 32 hyperglycemic mice were divided into four groups according to their FBG (8 mice per group): control (distilled water), MFE 100 (100 mg/kg BW), MFE 200 (200 mg/kg BW), and metformin (300 mg/kg BW). Sample suspended in distilled water containing 0.3% CMC-Na was administered p.o. two times a day for 2 weeks. FBG of the diabetic mice was determined on the day 7 and 14 as described before. On the day 14, the mice were sacrificed under diethyl ether anesthesia after the FBG determination. Blood was collected from the ophthalmic vein and allowed to clot at room temperature for 30 min. The serum was separate by centrifuging at 4000 rpm for 10 min with a refrigerated centrifuge. Liver and kidney were excised. Samples were stored at −20°C until used.
(§3) 10% solution of tissue homogenate was prepared as follows. Pieces of liver or kidney were homogenized in 9 volumes (w/v) ice-cold saline and centrifuged at 4000 rpm for 8 min. The supernatants were separated and stored at 4°C for analysis. Protein content of tissue homogenate was determined according to the Bradford method. Bovine serum albumin was used as standard. The superoxide dismutase (SOD), catalase (CAT) and glutathione peroxidase (GSH-Px) activities in liver and kidney tissue, the SOD and CAT activities in serum were determined using the respective commercial kits obtained from Nanjing Jiancheng Bioengineering Institute (Nanjing, China). SOD activity was determined by the nitrite method. SOD activity was expressed as units/mg protein or units/mL serum. The activity of CAT was measured using colorimetric method based on the decomposition of hydrogen peroxide (H2O2) by CAT. The enzyme catalysis was stopped by adding the solution of ammonium molybdate which can react with the rest H2O2 and give a yellow product. The product can be measured at 405 nm by its absorbance. The CAT activities of tissue or serum were presented as units/mg protein or units/mL serum respectively. GSH-Px activity was also measured according to a colorimetric method developed by Sedlak. […]

[7] = tested on: STZ-induced diabetic mice; experiment: Glycosylated serum protein (GSP) of STZ-induced diabetic mice, NBT colorimetric method; type: in vivo; details: 300 mg/kg p.o. two times a day, n = 8
Procedure: as §2
GSP level was measured according to the nitroblue tetrazolium (NBT) colorimetric method using commercial kits purchased from Nanjing Jiancheng Bioengineering Institute (Nanjing, China). This method based on the ability of the ketoamine group of glycated proteins to reduce tetrazolium salt under alkaline conditions. Fructosamine was used as standard.

[8] = tested on: STZ-induced diabetic mice; experiment: CAT activity in serum, kidney and liver of STZ-induced diabetic mice; type: in vivo; details: 300 mg/kg, 2 weeks
Procedure: as §2, §3

[9] = tested on: STZ-induced diabetic mice; experiment: GSH-Px activity in kidney and liver of STZ-induced diabetic mice; type: in vivo; details: 300 mg/kg, 2 weeks
Procedure: as §2, with “Samples were stored at −20°C until used.” left out
10% solution of tissue homogenate was prepared as follows. […] Protein content of tissue homogenate was determined according to the Bradford method. […] The superoxide dismutase (SOD), catalase (CAT) and glutathione peroxidase (GSH-Px) activities in liver and kidney tissue, the SOD and CAT activities in serum were determined using the respective commercial kits obtained from Nanjing Jiancheng Bioengineering Institute (Nanjing, China). SOD activity was determined by the nitrite method. SOD activity was expressed as units/mg protein or units/mL serum. The activity of CAT was measured using colorimetric method based on the decomposition of hydrogen peroxide (H2O2) by CAT. […]

[10] = isolated compounds, mean ± SD, n = 3, read-out: IC50 α-glucosidase

T1 sequence (P53341 whole entry): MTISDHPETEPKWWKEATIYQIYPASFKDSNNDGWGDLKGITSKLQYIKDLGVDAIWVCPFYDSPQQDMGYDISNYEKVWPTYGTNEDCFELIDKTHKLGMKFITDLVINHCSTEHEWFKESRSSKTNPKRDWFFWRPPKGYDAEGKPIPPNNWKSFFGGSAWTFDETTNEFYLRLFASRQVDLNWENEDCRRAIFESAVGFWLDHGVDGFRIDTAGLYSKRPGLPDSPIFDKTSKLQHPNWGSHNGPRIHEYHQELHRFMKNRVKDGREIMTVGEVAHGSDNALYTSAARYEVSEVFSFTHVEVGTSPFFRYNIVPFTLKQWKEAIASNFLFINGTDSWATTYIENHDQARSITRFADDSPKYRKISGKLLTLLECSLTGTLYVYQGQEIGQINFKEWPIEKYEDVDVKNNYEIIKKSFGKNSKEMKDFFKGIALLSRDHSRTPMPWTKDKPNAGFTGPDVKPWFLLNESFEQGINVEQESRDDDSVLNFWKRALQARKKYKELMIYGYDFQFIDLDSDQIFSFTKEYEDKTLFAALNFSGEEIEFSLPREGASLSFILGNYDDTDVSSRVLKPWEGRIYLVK

Row | Compound | EC50 [2] [µM] | EC50 [3] [µM] | IC50 [1, 10] [µM] | also measured
1 | O=c1c(O)c(-c2ccc(O)c(O)c2)oc2cc(O[C@@H]3O[C@H](CO)[C@@H](O)[C@H](O)[C@H]3O)cc(O)c12 [Compound 5, quercetin 7-O-β-D-glucopyranoside] | 9.8 ± 0.53 | 24.6 ± 1.67 |  | IC50 [1]: 370 ± 31.2 µM
2 | O=C(O)c1ccc(O)c(O)c1 [Compound 18, protocatechuic acid] | 11.9 ± 0.69 | 101 ± 8.27 |  | 
3 | O=C1C[C@@H](c2ccc(O[C@@H]3O[C@H](CO)[C@@H](O)[C@H](O)[C@H]3O)c(O)c2)Oc2cc(O)cc(O)c21 [Compound 9, 5,7,3′-trihydroxy-flavanone-4′-O-β-D-glucopyranoside] | 79.4 ± 4.74 | 90.7 ± 8.28 |  | IC50 [1]: 409 ± 38.7 µM
4 | CC(=O)OC[C@H]1O[C@@H](Oc2c(-c3ccc(O)c(O)c3)oc3cc(O)cc(O)c3c2=O)[C@H](O)[C@@H](O)[C@@H]1O [Compound 3, quercetin 3-O-(6′′-O-acetyl)-β-D-glucopyranoside] | 11.8 ± 1.04 | 45.1 ± 1.66 | 310 ± 12.7 | 
5 | COC(=O)Cc1c(O)cc(O)cc1OC(=O)c1ccc(O)c(O)c1 [Compound 16, 2-O-(3,4-dihydroxybenzoyl)-2,4,6-trihydroxyphenylmethylacetate] | 10.8 ± 0.94 | 37.5 ± 2.62 |  | IC50 [1]: 31.7 ± 3.38 µM
6 | CCOC(=O)c1ccc(O)c(O)c1 [Compound 21, protocatechuic acid ethyl ester] | 9.04 ± 0.21 | 606 ± 25.8 |  | 
7 | O=C1O[C@H]([C@@H](O)CO)C(O)=C1O [Ascorbic acid, reference compound] | 33.5 ± 1.2 | > 500 |  | 
8 | O=c1c(O[C@@H]2O[C@H](CO)[C@@H](O)[C@H](O)[C@H]2O)c(-c2ccc(O)c(O)c2)oc2cc(O)cc(O)c12 [Compound 2, quercetin-3-O-β-D-glucopyranoside] | 7.89 ± 0.5 |  | 165 ± 11.6 | 
9 | C[C@@H]1O[C@@H](OC[C@H]2O[C@@H](Oc3c(-c4ccc(O)cc4)oc4cc(O)cc(O)c4c3=O)[C@H](O)[C@@H](O)[C@@H]2O)[C@H](O)[C@H](O)[C@H]1O [Compound 8, kaempferol 3-O-β-D-rutinoside] | 152 ± 5.9 | 196 ± 7.98 |  | IC50 [1]: 178.3 ± 0.35 µM
10 | C=C(C)C1Cc2c(ccc(C(=O)/C=C/c3ccc(O)cc3)c2O)O1 (stereo not shown) [Compound 14] | > 500 | 175 ± 9.72 |  | IC50 [1]: 225 ± 4.79 µM
11 | CN(C)C(=N)N=C(N)N [Metformin] |  |  |  | FBG day 0 ([5]; day 0): 25.66 ± 5.95 mmol/L; FBG day 7 ([5]; day 7): 15.44±4.57c mmol/L; FBG day 14 ([5]; day 14): 17.38±5.31c mmol/L; Kidney SOD ([6]; kidney): 246.56±24.80b units/mg protein; Liver SOD ([6]; liver): 145.03±13.79 units/mg protein; Serum SOD ([6]; serum): 251.29±28.78b units/mL serum; GSP day 14 [7]: 6.06±0.47 mmol/L and 6.06±0.47b mmol/L; Kidney CAT ([8]; kidney): 21.85±3.90b units/mg protein; Liver CAT ([8]; liver): 27.07±2.74 units/mg protein; Serum CAT ([8]; serum): 50.53±17.87c units/mL serum; Kidney GSH-Px ([9]; kidney): 240.36±40.31; Liver GSH-Px ([9]; liver): 275.78±21.02
12 | O=C(O)Cc1c(O)cc(O)cc1OC(=O)c1ccc(O)c(O)c1 [Compound 15, 2-O-(3,4-dihydroxybenzoyl)-2,4,6-trihydroxyphenylacetic acid] | 7.87 ± 0.73 | 15.2 ± 0.7 |  | IC50 [1]: 116 ± 6.75 µM
13 | C[C@@H]1O[C@@H](OC[C@H]2O[C@@H](Oc3c(-c4ccc(O)c(O)c4)oc4cc(O)cc(O)c4c3=O)[C@H](O)[C@@H](O)[C@@H]2O)[C@H](O)[C@H](O)[C@H]1O [Compound 4, quercetin 3-O-β-D-rutinoside] | 9.76 ± 0.61 | 30.6 ± 0.99 | 166 ± 11.7 | 
14 | O=c1c(O)c(-c2ccc(O)c(O)c2)oc2cc(O)cc(O)c12 [Compound 1, quercetin] | 11.9 ± 0.72 | 27.9 ± 0.59 |  | 

Further lines, with some results ahead:

Row | EC50 [2] [µM] | EC50 [3] [µM] | IC50 [1, 10] [µM] | Compound | also measured
15 | > 500 | 150 ± 9.1 | 67.3 ± 5.51 | CC(C)=CCc1c(O)ccc(C(=O)/C=C/c2ccc(O)cc2)c1O [Compound 12, isobavachalcone] | 
16 | 222 ± 13.8 | 194 ± 8.12 | 728 ± 67.7 | O=C1C[C@@H](c2ccc(O)c(O[C@@H]3O[C@H](CO)[C@@H](O)[C@H](O)[C@H]3O)c2)Oc2cc(O)cc(O)c21 [Compound 10, 5,7,4′-trihydroxy-flavanone-3′-O-β-D-glucopyranoside] | 
17 | > 500 | 191 ± 15 | 50 ± 3.18 | CC(C)=CCc1c(O)ccc(C(=O)/C=C/c2ccc(O)cc2O)c1O [Compound 13, 2,4,2′,4′,-tetrahydroxy-3′-(3-methyl-2-butenyl)-chalcone] | 
18 | 5.18 ± 0.34 | 10.1 ± 0.39 |  | O=C(O)c1cc(O)c(O)c(O)c1 [Gallic acid, reference compound] | EC50 DPPH [4]: 4.95 ± 0.24 µg/mL (≈ 29.1 µM); EC50 Superoxide anion ([3]; extracts): 5.21 ± 0.27 µg/mL (≈ 30.6 µM)
19 | 10.7 ± 0.34 | 214 ± 16.9 |  | COC(=O)c1ccc(O)c(O)c1 [Compound 20, protocatechuic acid methyl ester] | 
20 | 9.18 ± 0.97 | 50.7 ± 6.7 | 600 ± 45.9 | O=c1c(O[C@@H]2O[C@H](CO)[C@@H](O)[C@H](O)[C@H]2O)c(-c2ccc(O)c(O)c2)oc2cc(O[C@@H]3O[C@H](CO)[C@@H](O)[C@H](O)[C@H]3O)cc(O)c12 [Compound 6, quercetin 3,7-di-O-β-D-glucopyranoside] | 
21 | 6.74 ± 0.28 | 45.8 ± 2.97 |  | Oc1ccccc1O [Compound 25, pyrocatechol] | 
22 | 301 ± 13.8 | 122 ± 5.49 |  | O=c1c(O[C@@H]2O[C@H](CO)[C@@H](O)[C@H](O)[C@H]2O)c(-c2ccc(O)cc2)oc2cc(O)cc(O)c12 [Compound 7, kaempferol 3-O-β-D-glucopyranoside] | 
23 | 6.46 ± 0.39 | 58.3 ± 2.39 | 933 ± 98.8 | O=C1c2c(O)cc(O[C@@H]3O[C@H](CO)[C@@H](O)[C@H](O)[C@H]3O)cc2O[C@H](c2ccc(O)cc2)[C@H]1O [Compound 11, dihydrokaempferol 7-O-β-D-glucopyranoside] | 
24 | > 500 | 417 ± 23.9 |  | OCCc1ccc(O)cc1 [Compound 24, 2-(4-hydroxyphenyl)ethanol] | 
